In patent US20030113268A1, “Degradation-resistant glucocorticosteroid formulations” (priority 2000, published 2003):

Experiment: Comparison of radical quenchers: impurities on storage at 40° C. and 75% relative humidity, uncoated canisters
Type: physicochemical
Conditions: for effectiveness in reducing degradation of the budesonide formulations: Tables X-XII, 40° C./75% relative humidity
Source text: To compare the effectiveness of various radical quenchers in preventing degradation of budesonide formulations, formulations containing budesonide, HFA-134a, ethanol, and a radical quencher were made in uncoated canisters using the steps described in Example I. The compositions of the formulations are shown in Table IX. Formulations were made containing each radical quencher with and without 3% aqueous hydrogen peroxide. The hydrogen peroxide was included in some formulations to challenge the radical quencher.
The initial impurities in each formulation were measured, and the formulations were stored at 40° C. and 75% relative humidity. Impurities were measured again after 4 weeks and after 3 months. For selected formulations, impurities were also measured after 11 months.

Compound | effectiveness in reducing degradation of the budesonide formulations | physical stability of formulations including the radical quencher (clumping) (budesonide/ethanol/HFA-134a formulations)
CCCCCCCCCCCCCCCC(=O)OC[C@H](O)[C@H]1OC(=O)C(O)=C1O [ascorbyl palmitate] | very effective | tended to form clumps of solid matter
COc1ccc(O)c(C(C)(C)C)c1 [butylated hydroxyanisole (BHA), butylated hydroxyanisole] | very effective | 
Vitamin E | effectively reduced degradation | 
